Source: patent US20260138969A1 (Korea Research Institute of Chemical Technology, priority 2023, published 2026)

Legend:
[1] = tested on: PC12 cells; assay: Neuronal protective efficacy against 6-OHDA (MTT); assay type: cell-based; details: Rattus norvegicus, PC-12, 6-OHDA 40 μM, Control = 100, read-out: cell viability (AVE); for viability at 0.1 µM: compound 0.1 μM; for viability at 0.3 µM: compound 0.3 μM; for viability at 1 µM: compound 1 μM
Description: (§1) The neuronal toxicity substances 6-OHDA (6-hydroxydopamine hydrobromide) and MPP+ (1-methyl-4-phenylpyridinium) were purchased from Sigma-Aldrich (Saint Louis, MO, USA) and made into 100 mM DMSO stock. PC12 cells were seeded on 96-well plates with 4 pieces of 1×10 per well and incubated for one day. The cells were pretreated with each concentration of embodied compound for 1 h. Subsequently, 40 μM 6-OHDA and 2 mM MPP^+ were added and incubated for 24 hours, respectively. Subsequently, cell viability was measured using MTT (Invitrogen, MA, USA).

[2] = tested on: PC12 cells; assay: Neuronal protective efficacy against MPP+ (MTT); assay type: cell-based; details: Rattus norvegicus, PC-12, MPP 2 mM, Control = 100, read-out: cell viability (AVE); for viability at 0.1 µM: compound 0.1 μM; for viability at 0.3 µM: compound 0.3 μM; for viability at 1 µM: compound 1 μM
Description: as §1

[3] = MDR-MDCK cell membrane permeability assessment; assay type: in vitro ADME; details: dog; MDCK-MDR1 monolayer, 37° C., 2 hours
Description: (§2) MDCK-MDR1 cells (5×10^5 cells/mL) were incubated on a 24-transwell plate (Corning, NY, USA) for 4 days to measure permeability through a single layer of MDR-MDCK cells. The medium was replaced with a new medium every two days, and the electrical resistance between epithelial tissues (TEER) was measured using a Millicell® ERS-2 Volohmmeter (Merck KGaA, Darmstadt, Germany), and the cell membrane permeability test was performed after confirming that this value was greater than or equal to 300 Ohm.cm^2.
(§3) The apical and basolateral chambers were washed twice each in the order of Hanks' Balanced Salt Solution (HBSS) containing DPBS buffer and 10 mM Hydroxyethyl piperazine Ethane sulfonic acid (HEPES), and in the final washing step, HBSS was filled and maintained at a stable state at 37° C. for 30 minutes. After 30 minutes, the test material was instilled in each chamber and left at 37° C. for 2 hours, and the culture medium of the transferred layer was collected at 30-minute intervals, and the collected amount was supplemented with new HBSS.
(§4) The apparent permeability coefficient (Papp, cm/sec) was calculated using the following formula:
(§5) [formula] • Papp: Apparent permeability • dQ/dt: Permeability of the drug • A: Area of the filter membrane on which the cells are laid • C_0: Initial concentration of the drug
(§6) In addition, the Efflux ratio was calculated as follows: […]

[4] = tested on: MDR1; assay: MDR-MDCK cell membrane permeability assessment; assay type: in vitro ADME; details: dog; MDCK-MDR1 monolayer
Description: as §2, §3, §4, §5, §6

[5] = tested on: α-Syn transgenic Parkinson's disease mouse model; assay: α-Syn transgenic Parkinson's disease mouse model: neurological score (modified Irwin test); assay type: in vivo; details: Example 3 2/10/50 mg/kg, Example 2 2 mg/kg PO QD 5 months; vs TG+carrier (G2)
Description: (§7) The test drug was administered once daily (QD) via oral administration (PO) with a solution of 5 ml/kg for 5 months from 4 months to 9 months of age. Motor behavior tests (beam test) and neurological scores (modified Irwin test) were performed at 4 months (before administration), 7 months, and 9 months. After the final behavioral test, tissue samples were taken. Weight was measured on the same day once a week from 4 months of age until the end of the study.
Scores were recorded by direct observation of mice in cages for neurological behavioral disorders, except for startle reflex, tail pinch, and righting reflex. To test the startle reflex, a small remote control was used to make loud noises and check behaviors such as jumping, stopping, and blinking quickly. For the […] reflex, each mouse was removed from the cage and placed with its back facing the floor so that the mouse could correct its posture on its own. The tail pinch reflex was tested by gently squeezing the tip of the tail with forceps.
A score of 0 was given if there were normal or no abnormal features such as motor activity, 1 point if mild abnormalities were observed, and 2 to 3 points were given if serious abnormalities were observed. The scores for all observed behaviors for each mouse were added, and the average of the added scores for each group was calculated.

[6] = tested on: α-Syn transgenic Parkinson's disease mouse model; assay: α-Syn transgenic Parkinson's disease mouse model: TH staining of striatum; assay type: in vivo; details: 9 months of age; Example 3 2/10/50 mg/kg, Example 2 2 mg/kg PO QD; vs G2
Description: as §7
At 9 months of age, the measurement period ended, the mice were anesthetized, and then the experiment was terminated by cardiac puncture according to IACUC guidelines. Mice were perfused transcardially with 0.9% saline for tissue staining, followed by 4% paraformaldehyde until the mice were fixed. The brains were isolated and immobilized by soaking in 4% paraformaldehyde at 4° C. for 24 hours, followed by 30% sucrose added to PBS containing 0.02% sodium azide and stored at 4° C. for 3 days. Brain samples embedded in OCT compounds were sectioned to a thickness of 20 μm using Leica CM1950 (Leica Microsystems, Germany). The sections were stored at 4° C. in a preservation solution until they were stained by antibodies. […]
TH-stained brain tissue was imaged using an immunofluorescence microscope (Olympus, BZ21) in Olympus. The fluorescence intensity of the striatum was analyzed using Image J software.

[7] = tested on: CDAHFD-induced non-alcoholic steatohepatitis mouse model; assay: CDAHFD-induced non-alcoholic steatohepatitis mouse model: liver fibrosis (Picrosirius red); assay type: in vivo; details: for Picrosirius red staining area in the liver: Selonsertib 30 mg/kg, Example 3 10 and 30 mg/kg, Example 2 10 and 30 mg/kg PO QD, CDAHFD diet 4 and 8 weeks
Description: Creation of CDAHFD-induced NASH model and drug administration were carried out by dividing C57BL/6 male mice at 3 weeks of age into 7 groups as shown in Table 16 below. The control group (G1) was fed standard feed and water. Groups G2 to G7 were fed the CDAHFD (Research Diet Inc, #A06071302) diet for 4 and 8 weeks.
Picrosirius red staining was used for histological visualization of collagen fibers. Histopathology analysis evaluated the efficacy of improving liver fibrosis.
For mice in each group, three sections of the liver fixed with 4% PFA (paraformaldehyde) were prepared with paraffin blocks. Paraffin blocks were sectioned to a thickness of 5 μm (Histocore AUTOCUT R, Leica Microsystems, Germany) and the sections were mounted on silane-coated slides (MUTO, JPN) and stored until staining.
Xylene was used to remove paraffin from the slides, and the slides were moisturized and washed. The slides were stained with a solution of Picrosirius red (ab150681, Abcam, UK) and washed off with a solution of acetic acid. The slides were fitted after dehydration and cleaning using alcohol and xylene. For each section, two images of different areas were taken using a microscope (Axioscan7, ZEISS, Germany). The fibrotic area was measured using image J software compared to the total area. FIGS. 23a and 23b are graphs and images of Picrosirius red stained area ratios in the liver of a CDAHFD-induced mouse model of nonalcoholic steatohepatitis.

Compound	viability at 0.1 µM [1]	viability at 0.3 µM [1]	viability at 1 µM [1]	viability at 0.1 µM [2]	viability at 0.3 µM [2]	viability at 1 µM [2]	Papp A→B at 2 h [3]	Papp B→A at 2 h [3]	efflux ratio at 2 h [4]	neurological score [5]	TH staining intensity of striatum [6]	efficacy in improving liver fibrosis (Picrosirius red) ([7]; 30 mg/kg PO QD, after 4 weeks of the CDAHFD diet)	Picrosirius red staining area in the liver [7]
Cc1cc(F)c(C(=O)Nc2cccc(-n3nnc4c3CCC4)n2)cc1-n1cnc(C2CC2)c1 [Example 2, 5-(4-cyclopropyl-1H-imidazole-1-yl)-N-(6-(5,6-dihydrocyclopenta[d][1,2,3]triazole-1 (4H)-yl)pyridine-2-yl)-2-fluoro-4-methylbenzamide]	88.8%	91.5%	96.8%	83.9%	91.7%	92.4%	93.2 ± 11.2 ×10⁻⁶ cm/s	99.1 ± 16.8 ×10⁻⁶ cm/s	1.06	significantly reduced the neurological score of TG mice compared to G2	significantly higher than that of group G2	most improved efficacy	significantly reduced
Cc1cc(F)c(C(=O)Nc2cccc(-n3nnc4c3CCCC4)n2)cc1-n1cnc(C2CC2)c1 [Example 3, 5-(4-cyclopropyl-1H-imidazole-1-yl)-2-fluoro-4-methyl-N-(6-(4,5,6,7-tetrahydro-1H-benzo[d][1,2,3]triazole-1-yl)pyridine-2-yl)benzamide]	90%	92%	92.8%	87.4%	87.6%	89.9%	67.3 ± 12.8 ×10⁻⁶ cm/s	74.8 ± 12.3 ×10⁻⁶ cm/s	1.13	significantly reduced the neurological score of TG mice compared to G2	significantly higher than that of group G2		significantly reduced
